One data set deals with HSP90α (Homo sapiens, UniProt P07900). Put plainly: HSP90α Binding Fluorescent Polarization (FP) Assay. Particulars: competition with FITC-geldanamycin; read-out: HSP90 Binding Potency. Put shortly:
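Duplicate wells held BSA buffer, FITC-geldanamycin tracer, compound (3-fold dilution plate spanning 40 μM–2.0 nM) and recombinant protein diluted to 28 μg/ml before addition. Polarization read at 30, 60 and 120 min, 25 °C. Background-corrected mP values gave IC50 through a four-parameter inhibitor-response fit.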

The next data set deals with T1, BRD4 (BD1+BD2) (Homo sapiens, UniProt O60885).
T1 construct: 1.8 μg/ml recombinant BRD4 (BD1+BD2 domains) protein
Particulars: read-out: BRD4 Binding Potency.

For another data set, the target named is T2, BRD4 (Homo sapiens, UniProt O60885).
T2 construct: endogenous in cells; host or cells: MV4-11
Put plainly: BRD4 Degradation Flow Cytometry Assay in MV4-11 cells. The following applies: 24 hr. The data set is classed as cell-based. Here is the method: Protein Degradation Flow Cytometry
MV4-11 cells were plated in a 24-well tissue culture plate at a density of 350,000 cells/450 μL/well and incubated in 37° C./5% CO2 for 1 hr. Cells were then treated with compounds at various concentrations and incubated in 37° C./5% CO2 for 24 hr. Cells were harvested, washed once, counted and 200 μL of 1% paraformaldehyde/PBS was added and incubated for 15 min at room temperature. 200 μL of 1×PBS/0.4% Triton X-100 was added and incubated for 15 min at 4° C. Cells were washed three times and resuspended in 50 μL of 1×PBS/0.2% Triton X-100. 2 μL/10^6 cells of anti-BRD4 antibody (ABCAM, #128874) was added and mixed by pipetting up and down. Cells were incubated for 30 min at room temperature in the dark, washed three times and resuspended in 50 μL of 1×PBS/0.2% Triton X-100. Goat anti-rabbit IgG H&L antibody (1:2000 dilution) was added and mixed by pipetting up and down and incubated for 30 min at room temperature in the dark. Finally, cells were washed three times and resuspended in 200 μL of PBS for flow cytometric analysis.
(§1) % Inhibition=100−(D−B)/(S−B)*100%.
S: The fluorescence intensity of MV4-11 with antibody
D: The fluorescence intensity in the presence of different compound dilutions with antibody
B: The fluorescence intensity of MV4-11 only

The next data set concerns MV4-11 cells. Briefly: MV4-11 Cell Cytotoxicity Assay. The class given is cell-based, human. Particulars: human, MV4-11 cells, CCK-8.
Excerpt: as §1
S: The absorbance of the maximum (cells with DMSO)
B: The absorbance of the minimum (medium with DMSO)

Another data set relates to MV4-11 xenograft. Briefly: MV4-11 AML tumor xenograft study in mice. Here is the method: (§2) Tumor Xenograft Studies in Mice
MV4-11 acute myeloid leukemia and SU-DHL-4 diffuse large B-cell lymphoma (ATCC, #CRL-2957) cells were cultured in medium supplemented with 10% fetal bovine serum at 37° C./5% CO2. 5×10^6 MV-4-11 or 1×10^7 SU-DHL-4 cells were collected and re-suspended in 0.1 mL of serum-free media with Matrigel (1:1 v/v) per mouse for subcutaneous inoculation in isoflurane anesthetized male BALB/c nude or C.B-17 scid mice, respectively (treated in accordance with AAALAC animal welfare guidelines). When the average tumor volumes reached 100-200 mm^3, tumor volume outliers were removed and the remaining animals randomly divided into groups of 6-8 with similar average tumor volumes in each group. […] […] The appearance and behavior of each mouse was observed and recorded daily. Body weights and tumor volumes were measured and recorded every 2-4 days and the results were expressed as group means±SEM. Pairwise statistical comparisons between groups were performed by one-way ANOVA, and p<0.05 was considered statistically significant.

The next data set deals with SU-DHL-4 xenograft. Put plainly: SU-DHL-4 DLBCL tumor xenograft study in mice. Here is the method:
as §2
5×10^6 MV-4-11 or 1×10^7 SU-DHL-4 cells were collected and re-suspended in 0.1 mL of serum-free media with Matrigel (1:1 v/v) per mouse for subcutaneous inoculation in isoflurane anesthetized male BALB/c nude or C.B-17 scid mice, respectively (treated in accordance with AAALAC animal welfare guidelines). When the average tumor volumes reached 100-200 mm^3, tumor volume outliers were removed and the remaining animals randomly divided into groups of 6-8 with similar average tumor volumes in each group. […] Animals were intravenously dosed at 25 mg/kg, 50 mg/kg or 100 mg/kg 1×/week for 3 or 4 weeks. The appearance and behavior of each mouse was observed and recorded daily. Body weights and tumor volumes were measured and recorded every 2-4 days and the results were expressed as group means±SEM. Pairwise statistical comparisons between groups were performed by one-way ANOVA, and p<0.05 was considered statistically significant.

[1] abbreviates: 100 mg/kg intravenously 1×/week, after 4 weeks of dosing.

Bounds are passed on as bounds.

Take `Cc1sc2c(c1C)C(c1ccc(Cl)cc1)=N[C@@H](CC(=O)NCC(=O)NCC1CCN(C(=O)C3CCN(Cc4ccc(-n5c(O)nnc5-c5cc(C(C)C)c(O)cc5O)cc4)CC3)C1)c1nnc(C)n1-2` (stereo partly drawn) [Compound 47, 2-((S)-4-(4-chlorophenyl)-2,3,9-trimethyl-6H-thieno[3,2-f][1,2,4]triazolo[4,3-a][1,4]diazepin-6-yl)-N-(2-(((1-(1-(4-(3-(2,4-dihydroxy-5-isopropylphenyl)-5-hydroxy-4H-1,2,4-triazol-4-yl)benzyl)piperidine-4-carbonyl)pyrrolidin-3-yl)methyl)amino)-2-oxoethyl)acetamide, trifluoroacetic acid]: the IC50 at HSP90α and at BRD4 (BD1+BD2) was less than 100 nM each time. Further, the “degradation of BRD2, BRD3 and BRD4, in words” value at BRD4 (flow cytometry) is “only induced significant degradation of BRD4”. In the data set on MV4-11 cells, this compound showed an IC50 at 72 h of less than 100 nM.

(+)-JQ1 [reference compound]: the “BRD4 degradation in flow cytometry assay, in words” value (shortened to “BRD4 degradation”) on BRD4 is listed as “no substantial BRD4 degradation was observed”. In addition, the tumor growth inhibition result with MV4-11 xenograft (25 mg/kg intraperitoneal dosing 1×/day) is reported as “moderate tumor growth inhibition”. Besides, the “animal deaths and body weights” value in the data set with MV4-11 xenograft (any group) was “No animal deaths or significant effects on body weights were observed”.

As for `Cc1sc2c(c1C)C(c1ccc(Cl)cc1)=N[C@H](CC(=O)N1CCC(CN3CCN(Cc4ccc(-n5c(O)nnc5-c5cc(C(C)C)c(O)cc5O)cc4)CC3)CC1)c1nnc(C)n1-2` [Compound 5, 2-((6R)-4-(4-chlorophenyl)-2,3,9-trimethyl-6H-thieno[3,2-f][1,2,4]triazolo[4,3-a][1,4]diazepin-6-yl)-1-(4-((4-(4-(3-(2,4-dihydroxy-5-isopropylphenyl)-5-hydroxy-4H-1,2,4-triazol-4-yl)benzyl)piperazin-1-yl)methyl)piperidin-1-yl)ethanone, trifluoroacetic acid], the IC50 is 100 to 1000 nM at HSP90α and greater than 1000 nM at BRD4 (BD1+BD2). Also, at BRD4, the “BRD4 degradation” value is given as “does not degrade BRD4”.

Consider `CC(=O)N1CCC(CN2CCN(Cc3ccc(-n4c(O)nnc4-c4cc(C(C)C)c(O)cc4O)cc3)CC2)CC1` [HSP90 binder, 1-(4-((4-(4-(3-(2,4-dihydroxy-5-isopropylphenyl)-5-hydroxy-4H-1,2,4-triazol-4-yl)benzyl)piperazin-1-yl)methyl)piperidin-1-yl)ethan-1-one, reference compound], for which the “BRD4 degradation” value at BRD4 is on record as “no substantial BRD4 degradation was observed”.

For `Cc1sc2c(c1C)C(c1ccc(Cl)cc1)=N[C@@H](CC(=O)NCC(=O)NCC1CCN(C(=O)C3CCN(Cc4ccc(-n5c(O)nnc5-c5cc(C(C)C)c(O)cc5O)cc4)CC3)CC1)c1nnc(C)n1-2` [Compound 46, (S)-2-(4-(4-chlorophenyl)-2,3,9-trimethyl-6H-thieno[3,2-f][1,2,4]triazolo[4,3-a][1,4]diazepin-6-yl)-N-(2-(((1-(1-(4-(3-(2,4-dihydroxy-5-isopropylphenyl)-5-hydroxy-4H-1,2,4-triazol-4-yl)benzyl)piperidine-4-carbonyl)piperidin-4-yl)methyl)amino)-2-oxoethyl)acetamide, trifluoroacetic acid], the IC50 on HSP90α and at BRD4 (BD1+BD2) was less than 100 nM each time. Besides, in the data set on MV4-11 cells, the IC50 at 72 h was less than 100 nM.

As to `CCc1cc(-c2nnc(C(=O)NCC(F)(F)F)n2-c2ccc(CN3CCN(CC4CCN(C(=O)C[C@@H]5N=C(c6ccc(Cl)cc6)c6c(sc(C)c6C)-n6c(C)nnc65)CC4)CC3)cc2)c(O)cc1O.Cl` [Compound 78, 4-(4-((4-((1-(2-((6S)-4-(4-chlorophenyl)-2,3,9-trimethyl-6H-thieno[3,2-f][1,2,4]triazolo[4,3-a][1,4]diazepin-6-yl)acetyl)piperidin-4-yl)methyl)piperazin-1-yl)methyl)phenyl)-5-(5-ethyl-2,4-dihydroxyphenyl)-N-(2,2,2-trifluoroethyl)-4H-1,2,4-triazole-3-carboxamide hydrochloride], the IC50 on HSP90α fell in the range of 100 to 1000 nM. Besides, the IC50 on BRD4 (BD1+BD2) lay in the range of 100 to 1000 nM. Also, in the data set with SU-DHL-4 xenograft (setting [1]), the tumor growth inhibition result is reported as “significant tumor growth inhibition” and the “tumor vs control (T/C) value” is 28%. The “animal deaths and body weights” value with SU-DHL-4 xenograft (any dose level) is recorded as “No animal deaths or significant effects on body weights were observed”.

Values taken from patent US20220168427A1 (Ranok Therapeutics (Hangzhou) Co. Ltd., priority 2019, published 2022).
